Measurements as given in patent US5672597A, “Acetamide derivative” (Kaken Pharmaceutical Co., Ltd., priority 1992, dated 1997).
Like-named read-outs stand apart in the source and are kept apart here.

How the values were obtained:
[1] = tested on: ulcer induced by pylorus-ligation; assay: Test of ulcer induced by pylorus-ligation; assay type: in vivo, wistar male rat; conditions: 14 h, read-out: Percentage of inhibition of ulcer formation
Description: (§1) With respect to anti-ulcer effect of the compounds having the general formula (I), there were carried out a test of ulcer induced by pylorus-ligation, which ulcer is induced mainly due to offensive factors; a test of ulcer induced by hydrochloric acid/ethanol, which ulcer is induced mainly due to defensive factors such as mucosal blood flow and mucus; and a test of ulcer induced by a stress of restraint plus water-immersion, which ulcer is induced due to both of offensive and defensive factors. Further, there were carried out a test of ulcer induced by acetic acid as a chronic ulcer model and a test of cure-prolonged ulcer induced by acetic acid. Also, there was examined an activity of increasing gastric mucosal blood flow, which activity brings about acceleration of regeneration of the gastric mucosa. As test compounds, hydrochloride salts were used.
The pylorus of a wistar male rat weighing 230 to 250 g, which had fasted for 48 hours, was ligated under ether-anesthesia, according to a usual method. After 14 hours, the animal was sacrificed by ether and the stomach was taken out therefrom.
The area of the ulcer generated on the fore-stomach was measured and the total area of the ulcer per rat was classified into the following six grades to give ulcer coefficients (Table 4).
Each of them was suspended in 0.5% methylcellulose solution and administered in the duodenum immediately after ligating the pylorus, in a dose of 100 mg/kg (body weight), respectively. To control group, only the medium for the medicament solution was administered in an amount of 0.25 ml/100 g (body weight).
The obtained results were subjected to the following formula to calculate a percentage of inhibition of ulcer formation. Six rats were used in each group for the test: [formula]

[2] = tested on: ulcer induced by hydrochloric acid/ethanol; assay: Test of ulcer induced by hydrochloric acid/ethanol; assay type: in vivo, wistar male rat; conditions: 1 h, read-out: Percentage of inhibition of ulcer formation; for inhibition in vivo at 30 mg/kg: 30 mg/kg oral, hydrochloride salts
Description: as §1
To a wistar male rat weighing 220 to 240 g, which had fasted and thirsted for 24 hours, was orally administered 150 mM hydrochloric acid/70% ethanol solution in an amount of 5 ml/kg (body weight). After 1 hour, the animal was sacrificed by dislocating the cervical vertebrae and the stomach was taken out therefrom. The length of the ulcer generated on the glandular stomach was measured and the total thereof was regarded as the ulcer coefficient (mm).
To control group, only the medium for the medicament solution was orally administered in an amount of […] (body weight), 30 minutes before the administration of hydrochloric acid/ethanol.
(§2) The obtained results were subjected to the same formula as in the test of ulcer induced by pylorus-ligation, to calculate a percentage of inhibition of ulcer formation. Six rats were used in each group for the test.

[3] = tested on: ulcer induced by a stress of restraint plus water-immersion; assay: Test of ulcer induced by a stress of restraint plus water-immersion; assay type: in vivo, ddY male mouse; conditions: 7 h, read-out: Percentage of inhibition of ulcer formation; for inhibition in vivo at 30 mg/kg: mouse, 30 mg/kg oral, 15 minutes before the load of the stress, hydrochloride salts
Description: as §1
A ddY male mouse weighing 20 to 25 g, which had fasted for 18 hours, was put into a stress cage, and was loaded with a stress by immersing it in a water tank at 23° C., to a level of a xiphoid. After 7 hours, the animal was sacrificed by dislocating the cervical vertebrae and the stomach was taken out therefrom. The length of the ulcer generated on the glandular stomach was measured and the total thereof was regarded as the ulcer coefficient (mm).
To control group, only the medium for the medicament solution was orally administered in an amount of 0.1 ml/10 g (body weight) 15 minutes before the load of the stress.
as §2

[4] = tested on: ulcer induced by acetic acid; assay: Test of ulcer induced by acetic acid; assay type: in vivo, wistar male rat; conditions: rat, 15 mg/kg oral, twice a day from 2 days after generation of the ulcer
Description: as §1
Into the junction of the glandular stomach and the antrum, of a wistar male rat weighing 220 to 240 g, was injected subserosally […] of 20% acetic acid to generate an ulcer induced by acetic acid. […] Each of them was suspended in 0.5% methylcellulose solution, and administered orally in a dose of 15 mg/kg, twice a day (in the morning and in the evening) from 2 days after the generation of the ulcer for days, respectively. The animal was sacrificed by ether on the day after the last administration, and the stomach was taken out therefrom. The area of the ulcer was measured.
The obtained results were subjected to the following formula to calculate a percentage of improvement for curing ulcer. To control group, only the medium for the medicament solution was administered in an amount of 0.5 ml/100 g (body weight). Twenty rats were used in each group for the test. [formula]

[5] = tested on: cure-prolonged ulcer induced by acetic acid; assay: Test of cure-prolonged ulcer induced by acetic acid; assay type: in vivo, wistar male rat; conditions: rat, 50 mg/kg oral, twice a day; cure prolonged with indomethacin 1 mg/kg s.c. for 13 days
Description: as §1
Into the junction of the glandular stomach and the antrum, of a wistar male rat weighing 220 to 240 g, was injected subserosally 30 μl of 20% acetic acid to generate an ulcer induced by acetic acid. From 2 days after the generation of the ulcer, indomethacin was injected subcutaneously in the regions of back of the rat in a dose of 1 mg/kg, once a day for 13 days to prolong the cure of the ulcer induced by acetic acid.
Each of them was suspended in 0.5% methylcellulose solution, and administered orally in a dose of 50 mg/kg, twice a day (in the morning and in the evening) from 13 days, respectively. The animal was sacrificed by ether on the day after the last administration, and the stomach was taken out therefrom. The area of the ulcer was measured. The obtained results were subjected to the following formula to calculate a percentage of improvement for curing ulcer. To control group, only the medium for the medicament solution was administered in an amount of 0.5 ml/100 g (body weight). Twenty rats were used in each group for the test. [formula]

[6] = rat, 100 mg/kg, in the duodenum immediately after ligating the pylorus, hydrochloride salts
[7] = rat, 30 minutes before hydrochloric acid/ethanol

Structure (SMILES)	inhibition in vivo at 100 mg/kg [1, 6] [%]	inhibition in vivo at 30 mg/kg [2, 7] [%]	inhibition in vivo at 30 mg/kg [3] [%]	further results
CNC(=S)NCCSCC(=O)NCCCOc1cccc(CN2CCCCC2)c1 [Example 16, N-[3-[3-(piperidinomethyl)phenoxy]propyl]-2-[2-(N'-methylthioureido)ethylthio]acetamide]	70	62	74	–
COc1ccccc1C(=O)NCCSCC(=O)NC/C=C\COc1cc(CN2CCCCC2)ccn1 [Example 91]	69	87	83	–
O=C(CSCCNC(=O)c1ccco1)NCCCOc1cccc(CN2CCCCC2)c1 [Example 5, N-[3-[3-(piperidinomethyl)phenoxy]propyl]-2-[2-(2-furoylamino)ethylthio]acetamide]	57	97	93	–
COc1ccccc1C(=O)NCCSCC(=O)NC/C=C\COc1cccc(CN2CCCCC2)c1 [Example 73]	60	67	69	–
CCC(=NC#N)NCCSCC(=O)NC/C=C\COc1cccc(CN2CCCCC2)c1 [Example 11, N-[4-[3-(piperidinomethyl)phenoxy]-cis-2-butenyl]-2-[2-[(N-cyanopropioimidoyl)amino]ethylthio]-acetamide]	55	51	70	–
COC(=O)NCC[S+]([O-])CC(=O)NCCCOc1cccc(CN2CCCCC2)c1 (centres unmarked) [Example 48]	95	73	100	–
COC(=O)NCCSCC(=O)NC/C=C\COc1cccc(CN2CCCCC2)c1 [Example 15, N-[4-[3-(piperidinomethyl)phenoxy]-cis-2-butenyl]-2-[2-(methoxycarbonylamino)ethylthio]acetamide]	68	60	98	–
NC(N)=Nc1nc(CSCCC(N)=NS(N)(=O)=O)cs1 [famotidine, reference compound]	70	–	100	inhibition in vivo at 100 mg/kg ([2]; rat, 100 mg/kg oral (cimetidine and famotidine), 30 minutes before hydrochloric acid/ethanol): 34%; Percentage of improvement for curing ulcer [4]: 7%; Percentage of improvement for curing ulcer [5]: 26%
O=C(CSCCNC(=O)c1ccccc1F)NCCCOc1cccc(CN2CCCCC2)c1 [Example 44]	57	83	77	–
COC(=O)NCCSCC(=O)NCCCOc1cccc(CN2CCCCC2)c1 [Example 12, N-[3-[3-(piperidinomethyl)phenoxy]propyl]-2-[2-(methoxycarbonylamino)ethylthio]acetamide]	77	68	68	–
CCCCNC(=S)NCCSCC(=O)NC/C=C\COc1cc(CN2CCCCC2)ccn1 [Example 95]	73	72	71	–
CCOC(=O)NCCSCC(=O)NC/C=C\COc1cccc(CN2CCCCC2)c1 [Example 14, N-[4-[3-(piperidinomethyl)phenoxy]-cis-2-butenyl]-2-[2-(ethoxycarbonylamino)ethylthio]acetamide]	63	77	91	–
CCOC(=O)NCCSCC(=O)NCCCOc1cccc(CN2CCCCC2)c1 [Example 13, N-[3-[3-(piperidinomethyl)phenoxy]propyl]-2-[2-(ethoxycarbonylamino)ethylthio]acetamide]	68	69	89	–
CN/C(=N/CCSCc1nc[nH]c1C)NC#N [cimetidine, reference compound]	–	–	–	inhibition in vivo at 100 mg/kg ([1]; Rattus norvegicus): 27%; inhibition in vivo at 100 mg/kg ([2]; Rattus norvegicus, po): 7%; inhibition in vivo at 100 mg/kg ([3]; Mus musculus, po): 61%
O=C(CSCCNC(=O)c1ccccn1)NCCCOc1cccc(CN2CCCCC2)c1 [Example 6]	67	61	88	–
C=CCOC(=O)NCC[S+]([O-])CC(=O)NC/C=C\COc1cccc(CN2CCCCC2)c1 (centres unmarked) [Example 81]	76	69	73	–
COc1ccc(CN2CCCCC2)cc1OC/C=C\CNC(=O)CSCCNC(=O)c1ccoc1 [Example 4, N-[4-[(2-methoxy-5-piperidinomethyl)phenoxy]-cis-2-butenyl]-2-[2-(3-furoylamino)ethylthio]acetamide]	73	97	75	–
O=C(CSCCNC(=O)c1ccccc1)NC/C=C\COc1cccc(CN2CCCCC2)c1 [Example 8, N-[4-[3-(piperidinomethyl)phenoxy]-cis-2-butenyl]-2-[2-(benzoylamino)ethylthio]acetamide]	50	90	93	–
O=C(CSCCNC(=O)c1ccoc1)NC/C=C\COc1cccc(CN2CCCCC2)c1 [Example 10, N-[4-[3-(piperidinomethyl)phenoxy]-cis-2-butenyl]-2-[2-(3-furoylamino)ethylthio]acetamide]	73	89	73	–
COC(=O)NCC[S+]([O-])CC(=O)NC/C=C\COc1cccc(CN2CCCCC2)c1 (centres unmarked) [Example 79]	57	78	67	–
